# Measurements: patent US20060183773A1, “Uses of methylphenidate derivatives” (priority 2005, published 2006)
# Key:
# Assay type in all cases: cell-based, human
# T cells = test: CD69+TCR staining of PBL, flow cytometry (T-cell activation); details: for CD69+TCR staining of PHA-stimulated cells: PHA alone 84%
# Protocol: After this incubation, PHA was added to give a final concentration of 5 μg/ml, and the cells were incubated for an additional 72 hours at 37° C., 5% CO2. All cultures were performed in triplicate. Cells were then removed by centrifugation at 1000 rpm for 10 minutes.
# The cells were further analyzed by flow cytometry. Annexin was used to determine populations of dead or dying cells. Anti-CD69 antibody was used to establish the level of cellular activation. Antibody to T-cell receptor αβ (TCR) was also used. Recombinant Annexin 5 (PE and FITC conjugates) and the antibodies were all purchase from Caltag (Burlingham, Calif.) and used following the manufacturer's recommendations.
# IL-8 [1] = test: IL-8 release by PHA-stimulated PBL, ELISA; details: PBL donor GR-192; 2 μg/ml PHA, 96 h; Cpd II 15 μg/ml, Dex 10 μM; FIG. 8
# Protocol: Whole blood was drawn from GR-192, a normal human volunteer, and processed as described in Example 1 to give heat-inactivated serum and PBL. […] After this incubation, PHA was added to give a final concentration of 2 μg/ml, and the cells were incubated for an additional 96 hours at 37° C., 5% CO2. All cultures were performed in triplicate. Cells were then removed by centrifugation at 1000 rpm for 10 minutes, and the culture medium collected.
# Release of IL-8 into the culture medium was measured by ELISA. To perform the ELISA, matched pairs of antibodies against human IL-8 were purchased from Pierce Biotechnology and Biosource, respectively. ELISA strip well plates were coated with 2 μg/ml of antibody to IL-8 (in phosphate-buffered saline (PBS)) overnight at room temperature. The plates were then blocked using a 4% BSA solution in PBS for one hour, followed by the addition of 50 μl of experimental culture medium per well in duplicate. The plates were incubated at room temperature for one hour and then washed using 50 mM Tris pH 8.0 with 0.1% Tween 20. Then, solutions of 100 ng/ml biotinylated second antibody to IL-8 were made in blocking buffer, and 100 μl were added per well. The plates were incubated for 1 hour and washed again. […] OD was determined using microplate reader with a 450 nm filter.
# IL-8 [2] = test: IL-8 production by CD3/CD28-stimulated TRiPS T-cell line, ELISA; details: 15 μg/ml; CD3/CD28 Dynabeads, 24 hours
# IL-8 [3] = test: IL-8 release by LPS-stimulated HUVECs, ELISA; details: for IL-8: LPS 200 ng/ml overnight + 15 μg/ml
# Protocol: Passage 4 (i.e., four cell population doublings) human umbilical vein endothelial cells (HUVECs), human source lot number 9713 (obtained from ATCC), were put into the wells of a 48-well tissue culture plate at 20,000 cells/well in 500 μl of endothelial growth medium-2 (EGM-2) complete medium (but without serum or ascorbate) (obtained from Cambrex) supplemented with ITSS (insulin, transferrin and sodium selenite) (obtained from Sigma). Also, passage 4 HUVECs, human source lot number 7016 (obtained from ATCC), were put into the wells of a 48-well tissue culture plate at 20,000 cells/well in 500 μl of EGM-2 complete medium (but without serum or ascorbate) supplemented with ITSS. The following additives were added to the cells: water (vehicle control) and 15 μg/ml of the compound of formula II (Cpd II). After incubation for 1 hour at 37 ° C. and 5% CO2, lipopolysaccharide (LPS) (obtained from Sigma) was added to give a final concentration of 200 ng/ml, and the cells were incubated overnight at 37° C. and 5% CO2. After this incubation, the supernatants were collected, and the amount of IL-8 in the supernatants determined by ELISA as described in Example 4.
# RAP2 = test: Custom AntibodyArray, TRiPS cells: RAP2; details: 15 μg/ml, 30 minutes
# Protocol: (§1) Day 18 TRiPS cells, 1×10^6, were incubated for 30 minutes at 37° C., either with nothing added (“Nil”), with 1 μl CD3/CD28 Dynabeads (Dynal, Oslo, Norway) (“CD3/CD28 beads”) per 100,000 cells, or with CD3/CD28 beads and 15 μg/ml of the compound of formula II (Cpd II). After the incubation, the cells were lysed in Cell-Lytic Mammalian Cell Extraction Reagent (Sigma). After centrifugation to pellet cellular debris, the supernatants (cell extracts) were obtained.
# (§2) The cell extracts (supernatants) were then analyzed using a Custom AntibodyArray™ manufactured by Hypromatrix Inc., Worcester, Mass., following the manufacturer's instructions. The Custom AntibodyArray™ is a nylon membrane blotted with antibodies to the proteins listed below. Briefly, the cell extracts were incubated with duplicate Custom AntibodyArray™'s for 2 hours at room temperature with slow shaking, followed by three washes with Tris buffer (150 mM NaCl, 25 mM Tris, 0.05% Tween-20, pH 7.5). HRP-labeled antibodies specific for phosphorylated-tyrosine, phosphorylated-serine and phosphorylated-threonine in Tris buffer were added, and the arrays incubated for 2 hours. After three more washes with Tris buffer, a peroxidase-reactive luminescent substrate was added. The arrays were visualized by exposure to X-ray film. Densitometry of the X-ray films was measured by scanning and computer analysis.
# STAT5b = test: Custom AntibodyArray, TRiPS cells: STAT5b; details: 15 μg/ml, 30 minutes
# Protocol: as §1, §2
# JNK1 = test: Custom AntibodyArray, TRiPS cells: JNK1; details: 15 μg/ml, 30 minutes
# Protocol: as §1, §2
# IkB-β = test: Custom AntibodyArray, TRiPS cells: IkB-β; details: 15 μg/ml, 30 minutes
# Protocol: as §1, §2
# IL-2 = test: Custom AntibodyArray, TRiPS cells: IL-2; details: 15 μg/ml, 30 minutes
# Protocol: as §1, §2
# IL-4 = test: Custom AntibodyArray, TRiPS cells: IL-4; details: 15 μg/ml, 30 minutes
# Protocol: as §1, §2
# STAT2 = test: Custom AntibodyArray, TRiPS cells: STAT2; details: 15 μg/ml, 30 minutes
# Protocol: as §1, §2
smiles,measurement,setting,value
COC(=O)C(c1ccc(-c2ccccc2)cc1)C1CCCCN1 (stereo not shown) [Cpd II],CD69+TCR staining of PHA-stimulated cells,T cells; PHA 5 μg/ml plus 15 μg/ml,64%
same,CD69+TCR staining of PHA-stimulated cells,T cells; PHA 5 μg/ml plus 50 μg/ml,54%
same,CD69+TCR staining (activated T cells),"T cells; compound alone, no PHA",not detected
same,IL-8 release induced by PHA,IL-8 [1],significantly inhibited IL-8 release induced by PHA
same,IL-8 production by the TRiPS cell line,IL-8 [2],no effect on IL-8 production
same,IL-8,"IL-8 [3]; 7016 HUVECs, LPS only 53.3",Below detection
same,IL-8,"IL-8 [3]; 9713 HUVECs, LPS only 485.0",49.8 pg/mL
same,IL-8 release by the 7016 HUVECs (in words),IL-8 [3]; LPS 200 ng/ml + 15 μg/ml,complete eliminated IL-8 release
same,decrease of IL-8 release in the 9713 HUVECs,IL-8 [3]; LPS 200 ng/ml + 15 μg/ml,90%
same,Effect of Cpd II on the protein in CD3/CD28 stimulated TRiPS cells,RAP2,Activated
same,Effect of Cpd II on the protein in CD3/CD28 stimulated TRiPS cells,STAT5b,Activated
same,Effect of Cpd II on the protein in CD3/CD28 stimulated TRiPS cells,JNK1,Decreased level back to basal levels (Nil control)
same,Effect of Cpd II on the protein in CD3/CD28 stimulated TRiPS cells,IkB-β,Decreased level back to basal levels (Nil control)
same,Effect of Cpd II on the protein in CD3/CD28 stimulated TRiPS cells,IL-2,Decreased level back to basal levels (Nil control)
same,Effect of Cpd II on the protein in CD3/CD28 stimulated TRiPS cells,IL-4,Decreased level back to basal levels (Nil control)
same,Effect of Cpd II on the protein in CD3/CD28 stimulated TRiPS cells,STAT2,No effect
